Data published in publication PMC3871595, “Structure Based Identification and Characterization of Flavonoids That Disrupt Human Papillomavirus-16 E6 Function” (PLoS ONE, 2013).
Entries after “also recorded” stand apart in the source; their conditions may differ.

Legend:
[1] = solubility in aqueous SPR buffers; assay type: physicochemical; details: for aqueous solubility (in words): simple aqueous solution
[2] = system: primary human foreskin keratinocytes; assay: p53/p21 immunoblot analysis in primary HFKs; assay type: cell-based; details: 40 hours
Experimental: (§1) Each compound was used to treat primary HFKs or HFKs immortalized through the over-expression of HPV16 E6 and E7 proteins.
(§2) 20,000 cells per cm^2 were plated in 6-well dishes. Cells were incubated for 24 hours at which time fresh media and compound were added. After 40 hours, cells were harvested, washed with cold PBS, and lysed in RIPA buffer with protease inhibitor. Each sample was separated on a 12% SDS-page gel, transferred to Immobilon-P membrane (Millipore) and blotted for the p53 (DO-1, Santa Cruz), p21 (c-19, Santa Cruz), and actin (A2066, Sigma). Protein quantification was performed with the Fujifilm LAS-4000 Multifunctional Imaging System. The signal intensity was measured for each band on an immunoblot, normalized to the loading control, and the fold increase was determined in relation to the appropriate DMSO treated control. RNA was isolated from these cells using Trizol Reagent (Invitrogen 15596-026). cDNA was generated using the Improm-II Reverse Transcription System (Promega A3801). qPCR was performed as described in the protocol for SsoFast EvaGreen supermix (BioRad 172-5023) using an BioRad CFX96 real-time PCR machine. Melting curves for each reaction were obtained. Each sample was assayed in triplicate and every plate contained a 5-point cDNA dilution course to calculate amplification efficiency for each primer pair. The Pfaffl method was used to determine the change in transcript levels relative to the DMSO and normalized to GAPDH.

p21^Cip1/Waf1 mRNA = assay: p21 mRNA qRT-PCR; assay type: cell-based, human; details: relative to DMSO, normalized to GAPDH
Experimental: It is possible that the increased p53 and p21 levels resulted from non-specific inhibition of protein degradation. However, if the increase in p21 was dependent upon p53 promoter activation, it should be possible to detect changes in the amounts of p21 mRNA detected in treated cells. To confirm that the increase in p21 protein level resulted from p53 activation, the levels of p21 mRNA were analyzed using qRT-PCR.
Figure 6 Induction of p21^Cip1/Waf1 mRNA. Compounds were tested for the ability to induce p21^Cip1/Waf1 expression at the mRNA level. Relative increases in transcripts were determined by qRT-PCR. […] Fold induction was calculated in relation to treatment with DMSO and normalized to GAPDH. Data were analyzed using one-way ANOVA with post-hoc analysis (Dunnetts; S.E.M.; n=2). Statistical significance (p<0.01) is indicated as * in comparison to Caski control (DMSO), # E6/E7 HFK control (DMSO), § HFK control (DMSO), and ◙ for RPE-1 control (DMSO).
20,000 cells per cm^2 were plated in 6-well dishes. Cells were incubated for 24 hours at which time fresh media and compound were added. […] Protein quantification was performed with the Fujifilm LAS-4000 Multifunctional Imaging System. The signal intensity was measured for each band on an immunoblot, normalized to the loading control, and the fold increase was determined in relation to the appropriate DMSO treated control. […]

[3] = system: E6/E7 immortalized human foreskin keratinocytes; assay: p53/p21 immunoblot analysis in E6/E7 immortalized HFKs; assay type: cell-based; details: 40 hours
Experimental: as §1, §2

Caski cells [4] = assay: SA-beta-gal senescence assay in Caski cells; assay type: cell-based, human; details: 72 hours, versus vehicle
Experimental: (§3) This was specific to Caski cells and was not observed in RPE-1, HeLa cells, or the HPV negative control cell lines C33a and HaCat (Figures S2A,B ). […] As observed in the viability assay, this occurred in both the HPV positive and negative cell lines. […] These cell lines were also assayed for apoptosis.
12,000 cells per cm^2 were plated in 24-well dishes; after 24 hours, fresh media and compound were added. SA-beta gal staining was performed as described. Images were collected using bright field microscopy. At least four fields (~100 cells per field) were read for each treatment, and experiments were repeated 3 times. The percent SA-beta-gal positive cells was calculated for each data point.

caspases 3 and 7 = assay: Caspase-Glo 3/7 apoptosis assay; assay type: cell-based, human; details: 4 – 48 hours
Experimental: as §3
For cell viability, 12,000 cells per cm^2 were plated in 96-well dishes 24 hours prior to drug addition. Fresh media and compound were added. Plates were read after 72-96 hours. Relative cell viability was assayed as directed in the Celltiter 96 AQueous one solution assay (Promega). For caspase activity, plates were assayed after 4, 8, 12, 24, or 48 hours as described for the Caspase-Glo 3/7 assay (Promega).

Caski cells [5] = assay: p53/p21 immunoblot analysis in Caski cells; assay type: cell-based, human; details: 40 hours
Experimental: (§4) Caski cells, which are derived from an HPV-16 infected cervical carcinoma and express HPV-16 E6 and E7, were used to determine whether these compounds interfere with HPV-16 E6 function. Inhibition of E6 should block its ability to promote the degradation of p53 thereby increasing the levels of p53. […] These compounds were also assayed in telomerase immortalized human retinal epithelial cells (RPE-1). […] If the elevation in p53 is dependent on the inhibition of E6 by these compounds, p53 should not increase in the RPE-1 cells.
as §2

RPE-1 cells = assay: p53/p21 immunoblot analysis in RPE-1 cells; assay type: cell-based, human; details: RPE-1 (HPV negative), 40 hours
Experimental: as §4, §2

E6/E7 HFKs = assay: cell viability (MTS, Celltiter 96 AQueous) E6/E7 HFKs; assay type: cell-based, human; details: 48 to 96 hours, relative to DMSO

COc1cccc(-c2cc(=O)c3cc(-c4nnn[nH]4)ccc3o2)c1 [CAF-24]
aqueous solubility (in words) [1]: poor solubility; also recorded: limited aqueous solubility
p21 protein levels [2]: little effect on p53 and p21 levels
p53 protein levels [2]: little effect on p53 and p21 levels
p21 mRNA level (p21^Cip1/Waf1 mRNA): increase in p21 mRNA
p21 protein levels [3]: increased p53 and p21 protein levels
p53 protein levels [3]: increased p53 and p21 protein levels
SA-β-gal staining (Caski cells [4]): increased more than two-fold
caspase 3 and 7 activity (caspases 3 and 7): did not observe increased caspase activity
p21^Cip1/Waf1 protein levels (Caski cells [5]): concomitant induction
p53 protein levels (Caski cells [5]): increased p53 levels
p21 protein levels (RPE-1 cells): did not induce increased levels of p53 or p21 proteins
p53 protein levels (RPE-1 cells): did not induce increased levels of p53 or p21 proteins
cell growth and viability (E6/E7 HFKs): selectively inhibited growth

O=c1cc(-c2ccc(O)c(O)c2)oc2cc(O)cc(O)c12 [luteolin, reference compound]
solubility ([1]; aqueous SPR buffers, read-out: concentration soluble in the appropriate buffers): < 20 µM
aqueous solubility (in words) [1]: poor solubility
p21 protein levels [2]: E6 independent increase in p53 and p21
p53 protein levels [2]: E6 independent increase in p53 and p21
p21 mRNA level (p21^Cip1/Waf1 mRNA): increase in p21 mRNA
p21 protein levels [3]: increased p53 and p21 protein levels
p53 protein levels [3]: increased p53 and p21 protein levels
SA-β-gal staining (Caski cells [4]): no significant increase in β-gal staining
caspase 3 and 7 activity (caspases 3 and 7): did not observe increased caspase activity
p21^Cip1/Waf1 protein levels (Caski cells [5]): concomitant induction
p53 protein levels (Caski cells [5]): increased p53 levels
p53 protein levels (RPE-1 cells): increase in p53 protein levels, but only at concentrations higher than was required to increase p53 and p21 levels in the Caski cells
cell growth and viability (E6/E7 HFKs): potent inhibitor of Caski, E6/E7 HFKs, and HeLa growth
